{"source": "patent US20060030550A1", "about": "“Pharmaceutical formulations” (priority 2004, published 2006)", "origin": "cited, not measured here", "key": {"[1]": {"conditions": "topically active steroid"}, "[2]": {"conditions": "preclinical testing"}, "[3]": {"conditions": "R112 over placebo, recent study"}}}
{"smiles": "C[C@@H]1C[C@H]2[C@@H]3CCC4=CC(=O)C=C[C@]4(C)[C@@]3(Cl)[C@@H](O)C[C@]2(C)[C@@]1(OC(=O)c1ccco1)C(=O)CCl", "note": "[Mometasone Furoate]", "values": [{"measurement": "bioavailability", "setting": "[1]", "value": "not readily bioavailable"}]}
{"smiles": "Cc1cc(CCCOc2c(C)cc(-c3noc(C(F)(F)F)n3)cc2C)on1", "note": "[Pleconaril, 1,2,4-oxadiazole3-[3,5-Dimethyl-4-[3-(3-methyl-5-isoxazolyl)propoxy]phenyl]-5-(trifluoremethyl)]", "values": [{"measurement": "activity against rhinoviruses", "setting": "rhinoviruses", "value": "active against rhinoviruses"}]}
{"smiles": "Oc1cccc(Nc2ncc(F)c(Nc3cccc(O)c3)n2)c1", "note": "[R112]", "values": [{"measurement": "symptoms most closely associated with chronic nasal congestion (e.g. stuffy nose)", "setting": "R112 over placebo", "value": "improved"}, {"measurement": "absolute difference over placebo", "setting": "[3]", "value": 9, "unit": "%"}, {"measurement": "relative improvement over placebo", "setting": "[3]", "value": "greater than 20%"}, {"measurement": "improvement from baseline measurements", "setting": "baseline = prior to drug initiation", "value": "up to 38%"}]}
{"smiles": "O=c1ccn([C@@H]2O[C@H](COP(=O)(O)OP(=O)(O)OP(=O)(O)OP(=O)(O)OC[C@H]3O[C@@H](n4ccc(=O)[nH]c4=O)[C@H](O)[C@@H]3O)[C@@H](O)[C@H]2O)c(=O)[nH]1", "note": "[diquafosol]", "values": [{"measurement": "secretions of natural tear components", "setting": "[2]", "value": "increased"}]}
